Measurements as given in ChEMBL document CHEMBL1137635, “Multiple antibiotics exert delayed effects against the Plasmodium falciparum apicoplast” (Antimicrob Agents Chemother, 2007).
Active and inactive are the calls of the source. The calls are words filed in the database; no cut-off is given here.

Columns and labels:
Plasmodium falciparum [1] = test: Antimalarial activity as 2nd generation ring-stage chloroquine-sensitive Plasmodium falciparum 3D7 after 48 hrs by flow cytometry; format: functional, organism-based; settings: 3D7, 48 h
Plasmodium falciparum [2] = test: Antimalarial activity as 3rd generation ring-stage chloroquine-sensitive Plasmodium falciparum 3D7 after 48 hrs dose then 48 hrs drug-free; format: functional, organism-based; settings: 3D7, 48 h
Plasmodium falciparum [3] = test: Antimalarial activity as 2nd generation ring-stage chloroquine-resistant Plasmodium falciparum W2 after 48 hrs by flow cytometry; format: functional, organism-based; settings: W2, 48 h
Plasmodium falciparum [4] = test: Antimalarial activity as 3rd generation ring-stage chloroquine-resistant Plasmodium falciparum W2 after 48 hrs dose then 48 hrs drug-free; format: functional, organism-based; settings: W2, 48 h
Plasmodium falciparum [5] = test: Antimalarial activity as segregation of apicoplasts against chloroquine-sensitive Plasmodium falciparum 3D7 infected in human erythrocytes at 6 uM 96 hrs post infection; format: functional, organism-based
Plasmodium falciparum [6] = test: Antimalarial activity as segregation of apicoplasts against chloroquine-sensitive ACP1-GFP-labeled Plasmodium falciparum 3D7 schizont infected human erythrocytes at 6 uM 96 hrs post infection; format: functional, organism-based
Plasmodium falciparum [7] = test: Antimalarial activity as schizont arrest after 48 hrs in chloroquine-sensitive Plasmodium falciparum 3D7 infected human erythrocytes at 6 uM 96 hrs post invasion by Giemsa staining; format: functional, organism-based
Plasmodium falciparum [8] = test: Antimalarial activity as abnormal apicoplast morphology in chloroquine-sensitive ACP1-GFP-labeled Plasmodium falciparum 3D7 trophozoite infected human erythrocytes at 2xIC50 dosed 96 hrs post infection; format: functional
Plasmodium falciparum [9] = test: Antimalarial activity as parasitaemia against chloroquine-sensitive ACP1-GFP-labeled Plasmodium falciparum 3D7 trophozoite infected human erythrocytes at 2xIC50 dosed 96 hrs post infection; format: functional
[10] = Cmax in patient with bronchitis at 500 mg, po twice daily for 3 days; settings: human, in vivo
[11] = Tmax in patient with bronchitis at 500 mg, po twice daily for 3 days; settings: human, in vivo
Plasmodium falciparum [12] = test: Antimalarial activity as 3rd generation parasitaemia against chloroquine-sensitive Plasmodium falciparum 3D7 infected human erythrocytes after 96hrs at 6 uM dosed 0-12 hrs post infection; format: functional
Plasmodium falciparum [13] = test: Antimalarial activity as 3rd generation parasitaemia against chloroquine-sensitive Plasmodium falciparum 3D7 infected human erythrocytes after 96hrs at 6 uM dosed 0-24 hrs post infection; format: functional
Plasmodium falciparum [14] = test: Antimalarial activity as 3rd generation parasitaemia against chloroquine-sensitive Plasmodium falciparum 3D7 infected human erythrocytes after 96hrs at 6 uM dosed 0-36 hrs post infection; format: functional
Plasmodium falciparum [15] = test: Antimalarial activity as 3rd generation parasitaemia against chloroquine-sensitive Plasmodium falciparum 3D7 infected human erythrocytes after 96hrs at 6 uM dosed 12-24 hrs post infection; format: functional
Plasmodium falciparum [16] = test: Antimalarial activity as 3rd generation parasitaemia against chloroquine-sensitive Plasmodium falciparum 3D7 infected human erythrocytes after 96hrs at 6 uM dosed 12-36 hrs post infection; format: functional
Plasmodium falciparum [17] = test: Antimalarial activity as 3rd generation parasitaemia against chloroquine-sensitive Plasmodium falciparum 3D7 infected human erythrocytes after 96hrs at 6 uM dosed 12-48 hrs post infection; format: functional
Plasmodium falciparum [18] = test: Antimalarial activity as 3rd generation parasitaemia against chloroquine-sensitive Plasmodium falciparum 3D7 infected human erythrocytes after 96hrs at 6 uM dosed 24-36 hrs post infection; format: functional
Plasmodium falciparum [19] = test: Antimalarial activity as 3rd generation parasitaemia against chloroquine-sensitive Plasmodium falciparum 3D7 infected human erythrocytes after 96hrs at 6 uM dosed 24-48 hrs post infection; format: functional
Plasmodium falciparum [20] = test: Antimalarial activity as 3rd generation parasitaemia against chloroquine-sensitive Plasmodium falciparum 3D7 infected human erythrocytes after 96hrs at 6 uM dosed 36-48 hrs post infection; format: functional
Plasmodium falciparum [21] = test: Antimalarial activity as 3rd generation after 96 hrs against chloroquine-sensitive Plasmodium falciparum 3D7 infected human erythrocytes at 6 uM 0-48 hrs post invasion; format: functional
Plasmodium falciparum [22] = test: Antimalarial activity as 3rd generation parasitaemia against chloroquine-sensitive Plasmodium falciparum 3D7 infected human erythrocytes after 96 hr at 25 nM dosed 24-48 hrs post infection; format: functional
Plasmodium falciparum [23] = test: Antimalarial activity as 3rd generation parasitaemia after 96 hrs against chloroquine-sensitive Plasmodium falciparum 3D7 infected human erythrocytes at 25 nM 36-48 hrs post invasion; format: functional
Plasmodium falciparum [24] = test: Antimalarial activity as segregation of apicoplasts against chloroquine-sensitive Plasmodium falciparum 3D7 infected human erythrocytes at 25 nM 96 hrs post infection; format: functional, organism-based
Plasmodium falciparum [25] = test: Antimalarial activity as arrested schizont maturation in chloroquine-sensitive Plasmodium falciparum 3D7 infected human erythrocytes after 48 hrs at 25 nM dosed 96 hrs post infection; format: functional, organism-based
Plasmodium falciparum [26] = test: Antimalarial activity as segregation of apicoplast in chloroquine-sensitive ACP1-GFP-labeled Plasmodium falciparum 3D7 schizont infected human erythrocytes at 25 nM dosed 96 hrs post infection; format: functional, organism-based
Plasmodium falciparum [27] = test: Antimalarial activity as abnormal apicoplast morphology in chloroquine-sensitive ACP1-GFP-labeled Plasmodium falciparum 3D7 after 48 hrs at 2xIC50 dosed 96 hrs post infection; format: functional, organism-based
Plasmodium falciparum [28] = test: Antimalarial activity in chloroquine-sensitive ACP1-GFP-labeled Plasmodium falciparum 3D7 after 48 hrs at 2xIC50 dosed 96 hrs post infection; format: functional, organism-based
Plasmodium falciparum [29] = test: Antimalarial activity as 3rd generation parasitaemia against chloroquine-sensitive Plasmodium falciparum 3D7 infected human erythrocytes after 96hrs at 25 nM dosed 0-12 hrs post infection; format: functional
Plasmodium falciparum [30] = test: Antimalarial activity as 3rd generation parasitaemia against chloroquine-sensitive Plasmodium falciparum 3D7 infected human erythrocytes after 96hrs at 25 nM dosed 0-24 hrs post infection; format: functional
Plasmodium falciparum [31] = test: Antimalarial activity as 3rd generation parasitaemia against chloroquine-sensitive Plasmodium falciparum 3D7 infected human erythrocytes after 96hrs at 25 nM dosed 0-36 hrs post infection; format: functional
Plasmodium falciparum [32] = test: Antimalarial activity as 3rd generation parasitaemia against chloroquine-sensitive Plasmodium falciparum 3D7 infected human erythrocytes after 96hrs at 25 nM dosed 0-48 hrs post infection; format: functional
Plasmodium falciparum [33] = test: Antimalarial activity as 3rd generation parasitaemia against chloroquine-sensitive Plasmodium falciparum 3D7 infected human erythrocytes after 96hrs at 25 nM dosed 12-24 hrs post infection; format: functional
Plasmodium falciparum [34] = test: Antimalarial activity as3rd generation parasitaemia against chloroquine-sensitive Plasmodium falciparum 3D7 infected human erythrocytes after 96 hrs at 25 nM dosed 12-36 hrs post infection; format: functional
Plasmodium falciparum [35] = test: Antimalarial activity as 3rd generation parasitaemia against chloroquine-sensitive Plasmodium falciparum 3D7 infected human erythrocytes after 96hrs at 25 nM dosed 12-48 hrs post infection; format: functional
Plasmodium falciparum [36] = test: Antimalarial activity as 3rd generation parasitaemia against chloroquine-sensitive Plasmodium falciparum 3D7 infected human erythrocytes after 96hrs at 25 nM dosed 24-36 hrs post infection; format: functional
Plasmodium falciparum [37] = test: Antimalarial activity as 3rd generation parasitaemia after 96 hrs against chloroquine-sensitive Plasmodium falciparum 3D7 infected human erythrocytes at 1 uM 0-12 hrs post invasion; format: functional
Plasmodium falciparum [38] = test: Antimalarial activity as segregation of apicoplasts against chloroquine-sensitive Plasmodium falciparum 3D7 infected human erythrocytes at 1 uM 96 hrs post infection; format: functional, organism-based
Plasmodium falciparum [39] = test: Antimalarial activity as segregation of apicoplasts against chloroquine-sensitive ACP1-GFP-labeled Plasmodium falciparum 3D7 schizont infected human erythrocytes at 1 uM 96 hrs post infection; format: functional, organism-based
Plasmodium falciparum [40] = test: Antimalarial activity as arrested schizont maturation in chloroquine-sensitive Plasmodium falciparum 3D7 infected human erythrocytes after 48 hrs at 1 uM dosed 96 hrs post infection; format: functional, organism-based
[41] = Cmax in patient with tuberculosis at 600 mg, po once daily for 15 to 18 days; format: ADME, organism-based; parameters: dose 600 mg, route oral; settings: human, in vivo
[42] = Tmax in patient with tuberculosis at 600 mg, po once daily for 15 to 18 days; format: ADME, organism-based; settings: human, in vivo
[43] = Half life in patient with tuberculosis at 600 mg, po once daily for 15 to 18 days; format: ADME, organism-based; settings: human, in vivo
Plasmodium falciparum [44] = test: Antimalarial activity as 3rd generation parasitaemia after 96 hrs against chloroquine-sensitive Plasmodium falciparum 3D7 infected human erythrocytes at 1 uM 0-24 hrs post invasion; format: functional
Plasmodium falciparum [45] = test: Antimalarial activity as 3rd generation parasitaemia after 96 hrs against chloroquine-sensitive Plasmodium falciparum 3D7 infected human erythrocytes at 1 uM 0-36 hrs post invasion; format: functional
Plasmodium falciparum [46] = test: Antimalarial activity as 3rd generation parasitaemia after 96 hrs against chloroquine-sensitive Plasmodium falciparum 3D7 infected human erythrocytes at 1 uM 0-48 hrs post invasion; format: functional
Plasmodium falciparum [47] = test: Antimalarial activity as 3rd generation parasitaemia after 96 hrs against chloroquine-sensitive Plasmodium falciparum 3D7 infected human erythrocytes at 1 uM treated 12-24 hrs post invasion; format: functional
Plasmodium falciparum [48] = test: Antimalarial activity as 3rd generation parasitaemia after 96 hrs against chloroquine-sensitive Plasmodium falciparum 3D7 infected human erythrocytes at 1 uM 12-36 hrs post invasion; format: functional
Plasmodium falciparum [49] = test: Antimalarial activity as 3rd generation parasitaemia after 96 hrs against chloroquine-sensitive Plasmodium falciparum 3D7 infected human erythrocytes at 1 uM 12-48 hrs post invasion; format: functional
Plasmodium falciparum [50] = test: Antimalarial activity as 3rd generation parasitaemia after 96 hrs against chloroquine-sensitive Plasmodium falciparum 3D7 infected human erythrocytes at 1 uM 24-36 hrs post invasion; format: functional
Plasmodium falciparum [51] = test: Antimalarial activity as 3rd generation parasitaemia after 96 hrs against chloroquine-sensitive Plasmodium falciparum 3D7 infected human erythrocytes at 1 uM 24-48 hrs post invasion; format: functional
Plasmodium falciparum [52] = test: Antimalarial activity as 3rd generation parasitaemia after 96 hrs against chloroquine-sensitive Plasmodium falciparum 3D7 infected human erythrocytes at 1 uM 36-48 hrs post invasion; format: functional

## O=C(O)c1cn(C2CC2)c2cc(N3CCNCC3)c(F)cc2c1=O [CIPROFLOXACIN]
Plasmodium falciparum [1]
  IC50: 9.44 µM
Plasmodium falciparum [2]
  IC50: 3040 nM
Plasmodium falciparum [3]
  IC50: 24.9 µM
Plasmodium falciparum [4]
  IC50: 1750 nM
Plasmodium falciparum [5]
  Activity: Active
Plasmodium falciparum [6]
  Activity: Active
Plasmodium falciparum [7]
  Activity: inactive
Plasmodium falciparum [8]
  Activity: 81.4%
Plasmodium falciparum [9]
  Activity: 98.6%
[10]
  Cmax at 72 h: 7.6 µM
[11]
  Tmax at 72 h: 36 min
Plasmodium falciparum [12]
  Activity: 80%
Plasmodium falciparum [13]
  Activity: 67%
Plasmodium falciparum [14]
  Activity: 35%
Plasmodium falciparum [15]
  Activity: 63%
Plasmodium falciparum [16]
  Activity: 23%
Plasmodium falciparum [17]
  Activity: 24%
Plasmodium falciparum [18]
  Activity: 70%
Plasmodium falciparum [19]
  Activity: 74%
Plasmodium falciparum [20]
  Activity: 108%
Plasmodium falciparum [21]
  Activity: 13%

## CCC[C@@H]1C[C@@H](C(=O)N[C@@H]([C@H]2O[C@H](SC)[C@H](O)[C@@H](O)[C@H]2O)[C@H](C)Cl)N(C)C1 [CLINDAMYCIN]
Plasmodium falciparum [22]
  Activity: 78%
Plasmodium falciparum [23]
  Activity: 63%
Plasmodium falciparum [1]
  IC50: > 100 µM
Plasmodium falciparum [2]
  IC50: 8.81 nM
Plasmodium falciparum [3]
  IC50: > 100 µM
Plasmodium falciparum [4]; read-out: IC50
  IC50: 3.12 nM
Plasmodium falciparum [24]
  Activity: Active
Plasmodium falciparum [25]
  Activity: inactive
Plasmodium falciparum [8]
  Activity: 85.2%
Plasmodium falciparum [9]
  Activity: 99.3%
Plasmodium falciparum [26]
  Activity: Active
Plasmodium falciparum [27]
  Activity: Active
Plasmodium falciparum [28]
  Activity: Active
Plasmodium falciparum [29]
  Activity: 87%
Plasmodium falciparum [30]
  Activity: 49%
Plasmodium falciparum [31]
  Activity: 21%
Plasmodium falciparum [32]
  Activity: 11%
Plasmodium falciparum [33]
  Activity: 41%
Plasmodium falciparum [34]
  Activity: 15%
Plasmodium falciparum [35]
  Activity: 19%
Plasmodium falciparum [36]
  Activity: 52%

## C[C@H]1c2cccc(O)c2C(=O)C2=C(O)[C@]3(O)C(=O)C(C(N)=O)=C(O)[C@@H](N(C)C)[C@@H]3[C@@H](O)[C@@H]21.O [DOXYCYCLINE]
Plasmodium falciparum [37]
  Activity: 89%
Plasmodium falciparum [1]
  IC50: 5.32 µM
Plasmodium falciparum [2]
  IC50: 453 nM
Plasmodium falciparum [3]
  IC50: 3.3 µM
Plasmodium falciparum [4]; read-out: IC50
  IC50: 211 nM
Plasmodium falciparum [38]
  Activity: Active
Plasmodium falciparum [39]
  Activity: Active
Plasmodium falciparum [40]
  Activity: inactive
Plasmodium falciparum [8]
  Activity: 83.6%
Plasmodium falciparum [9]
  Activity: 97.2%
[41]
  Cmax: 6.9 µM
[42]
  Tmax: 2 h
[43]
  half-life: 420 min
Plasmodium falciparum [27]
  Activity: Active
Plasmodium falciparum [28]
  Activity: Active
Plasmodium falciparum [44]
  Activity: 69%
Plasmodium falciparum [45]
  Activity: 24%
Plasmodium falciparum [46]
  Activity: 9%
Plasmodium falciparum [47]
  Activity: 44%
Plasmodium falciparum [48]
  Activity: 12%
Plasmodium falciparum [49]
  Activity: 13%
Plasmodium falciparum [50]
  Activity: 41%
Plasmodium falciparum [51]
  Activity: 87%
Plasmodium falciparum [52]
  Activity: 121%
